Reference: paper PMC9964503, “Effects of Apigenin on Pharmacokinetics of Dasatinib and Probable Interaction Mechanism” (Molecules, 2023)

Legend:
Pgp/MDR1 = assay: Hepatic and intestinal Pgp/MDR1 protein expression (immunoblot); type: in vivo, rats
Procedure: (§1) The animals were categorized into four groups (n = 6) and fasted for 12 h before the experiment. […] orally administered with normal saline for 7 days and Group II was orally administered DAS (25 mg/kg) on the 7th day. Group III was co-administered DAS with APG for 7 days and DAS (25 mg/kg p.o.) on the 7th day, 2 h after APG 40 mg/kg administration, and Group IV was administered with APG 40 mg/kg for 7 days. The blood was collected from the tail vein at various time points after DAS administration and subjected to centrifugation at 5000× g for 10 min to obtain plasma for DAS quantification using ultra pressure liquid chromatography with mass. At the end of the experiment, all animals were euthanized using carbon dioxide, and liver and intestine tissues were harvested and for Western blotting.
(§2) A PierceTM BCA Protein Assay Kit (Thermo Fisher Scientific) was used to extract the total protein from the hepatic and intestinal tissues by bicinchoninic acid technique. Immunoblots were executed as per the methods of Towbin et al. (1979) with slight modification. Briefly, 10% SDS polyacrylamide gels were used to electrophorese 25 μg of hepatic and intestinal epithelial proteins. These proteins were then transferred to activated PVDF membranes and blocked with 4% skim milk and BSA in TBST. After that, membranes were treated with antibodies for CYP3A2 isozymes, active transporters P-glycoprotein/MDR1, BCRP/ABCG2, and β-actin protein expression for an overnight period (4 °C). The membrane strips were incubated with the suitable secondary antibodies for 2 h after repeated washing steps with 1% TBST and TBS (room temperature). The membrane strips were then washed four times with TBST for five minutes each time. Bands were developed using Luminata™ Western Chemiluminescent HRP Substrates (Millipore), followed by densitometric evaluation of the immunoblots.

CYP3A2 = assay: Hepatic and intestinal CYP3A2 protein expression (immunoblot); type: in vivo, rats
Procedure: as §1, §2

BCRP/ABCG2 = assay: Hepatic and intestinal BCRP/ABCG2 protein expression (immunoblot); type: in vivo, rats
Procedure: as §1, §2

[1] = Pharmacokinetics of oral DAS in rats with or without APG pretreatment (UPLC-MS/MS, non-compartmental); type: in vivo; conditions: DAS in rat plasma, DAS 25 mg/kg p.o., alone or after APG 40 mg/kg p.o. for 7 days, mean ± SD
Procedure: The Central Animal House facility of College of Pharmacy, King Saud University’s, Riyadh, Saudi Arabia, provided 24 healthy adult male Wistar rats (weighing 211–223 g), and the experiment was authorized by the Animal Ethics Committee of the College of Pharmacy, King Saud University (KSU-SE-21-58). All animals were retained in polypropylene cages: 6 animals were caged (n = 6) per cage with a 12-h light/dark cycle, at 25 °C in humane conditions with free access to food and water and adapted to the living conditions one week prior to experiment
as §1
Using UHPLC-MS/MS, DAS concentrations in rat plasma samples were determined. A mixture of DAS and IBR (internal standard) was separated on an Acquity BEH C18 column, and both compounds were eluted at a flow rate of 0.25 mL/min from a mobile phase consisting of acetonitrile, 0.1% formic acid, and 20mM ammonium acetate (95:5). The entire duration of the study was about 2.5 min. The auto-sampler was kept at 10 °C, while the column oven was kept at a constant 40 °C. Electrospray ionization was used to ionize samples in a positive direction. […] Multiple reaction monitoring (MRM) mode detection and quantitation of analyte (DAS) and IS (IBR) employed the precursor to product ion transition of 488.06 and gt; 401.1 and 441.16 and gt; 84.04, respectively. Capillary voltage was 3.4 kV, source temperature was 150 °C, and desolvation temperature was 350 °C for optimum sample ionization using MS/MS. A flow rate of 600 L/h of nitrogen gas was utilized for the desolvation process, whereas a flow rate of 0.18 mL/min of argon gas was used for the collision process. The analyte and IS cone voltages were 46 V and 48 V, and the collision energy was 28 eV and 40 eV, respectively. Precision and accuracy were partially confirmed for the assay using the “US Food and Drug Administration 2018 guideline for bioanalytical technique validation,” and found to be within acceptable ranges of 15% both intra- and inter-day. The samples were acquired using Masslynx 4.1 SCN 805, and then processed using TargetLynks. After making a few modifications to a previously reported study, it was put to use.
A plasma sample of 150 µL was aliquoted into an Eppendorf tube, along with 20 µL of a spiked internal standard (250 ng/mL), and 1 mL of ethyl acetate was also added for the extraction phase. For 10 min at 4 °C and 10,500 rpm, centrifuged samples were shaken for 15 min after being vortexed. Finally, 800 µL of the organic upper layer were transferred to an Eppendorf tube and dried in a sample concentrator at room temperature. Following reconstitution with 150 µL of acetonitrile, the dried residue was transported to UHPLC-MS/MS for 5 µL of analysis.
PK Solver software was employed to calculate the pharmacokinetic parameters using non-compartmental model. The calculated parameters were as follows: half-life (T1/2), elimination rate constant (Kel), time to maximum concentration (Tmax), the maximum concentration (Cmax), area under concentration time curve (AUC), the area under the moment curve (AUMC); the volume of distribution (Vd), the mean residence time (MRT), and clearance (Cl) were examined.

[2] = intestine, APG 40 mg/kg only pretreatment vs normal rats
[3] = liver, APG 40 mg/kg only pretreatment vs normal rats
[4] = intestine, DAS peroral vs normal rats
[5] = liver, DAS peroral vs normal rats

**Q.** What does the source list for `O=c1cc(-c2ccc(O)cc2)oc2cc(O)cc(O)c12` [APG, 4′,5,7-trihydroxyflavone]?
**A.** inhibition of intestinal Pgp/MDR1 protein expression (Pgp/MDR1; [2]): 87.84%; inhibition of hepatic Pgp/MDR1 protein expression (Pgp/MDR1; [3]): 90.67%; inhibition of intestinal CYP3A2 protein expression (CYP3A2; [2]): 90.97%; inhibition of hepatic CYP3A2 protein expression (CYP3A2; [3]): 87.24%; inhibition of intestinal BCRP/ABCG2 protein expression (BCRP/ABCG2; [2]): 91.50%; inhibition of hepatic BCRP/ABCG2 protein expression (BCRP/ABCG2; [3]): 91.05%

**Q.** What does the source list for `Cc1nc(Nc2ncc(C(=O)Nc3c(C)cccc3Cl)s2)cc(N2CCN(CCO)CC2)n1` [DAS, Dasatinib]?
**A.** induction of intestinal Pgp/MDR1 protein expression (Pgp/MDR1; [4]): 91.65%; induction of hepatic Pgp/MDR1 protein expression (Pgp/MDR1; [5]): 93.08%; increase of intestinal CYP3A2 protein expression (CYP3A2; intestine, DAS administered rats vs normal control rats): 79.13%; induction of intestinal BCPR/ABCG2 protein expression (BCRP/ABCG2; [4]): 95.66%; induction of hepatic BCPR/ABCG2 protein expression (BCRP/ABCG2; [5]): 92.55%; AUC0-t [1]: 1635.84 ± 45.29 ng·h/mL; AUMC0-inf_obs [1]: 16200.10 ± 1656.57 ng/mL × h^2; Cl [1]: 0.012 ± 0.0005 (mg/kg)/(ng/mL)/h; Cmax [1]: 263.06 ± 12.33 ng/mL; Vd [1]: 0.087 ± 0.005 (mg/kg)/(ng/mL); Tmax ([1]; male, Wistar, po): 1 h; half-life ([1]; male, Wistar, po): 298 ± 28.8 min; k el ([1]; male, Wistar, po): 3.89e-05 s⁻¹; AUC(0-inf) ([1]; male, Wistar, po, read-out: AUC0-inf_obs): 2060 ± 97 ng·h/mL; MRT inf ([1]; male, Wistar, po, read-out: MRT 0-inf_obs): 7.84 ± 0.46 h
